Two compounds from PMC11555526, “Development of 2-Aminoadenine-Based Proteolysis-Targeting Chimeras (PROTACs) as Novel Potent Degraders of Monopolar Spindle 1 and Aurora Kinases” (ACS Pharmacology & Translational Science, 2024) can be followed below.

Molecules are shown by their SMILES.

Data set [1] in a line: Stability in buffer solutions (LC-ESI-MS). Conditions: for residual concentration (% of initial concentration): after 24 h. The class given is physicochemical. As for the experimental part: Lastly, to gain a first insight into the stability of the synthesized compounds in a biological system, the stability of one of the degraders was examined at two different pH values and in human plasma (Figures S8 and S9). We chose one of the best degraders of the SF1 series, 20 as it also resembled the best degrader from azareversine series 19 in terms of the linker and E3-binding moiety. All experiments were carried out at 37 °C, and aliquots were analyzed using LC-ESI-MS at predetermined time points. […] We concluded from the stability profile of 20 that it is sufficient for further testing. […]
Stability in Buffer Solutions
The stability of the conjugate was examined by performing chemostability experiments at two different buffer solutions (pH = 5.2 and 7.4). Conjugate 20 was dissolved in 5 µL DMSO and transferred to 0.5 mL of the relevant buffer solution (acetate or phosphate aquatic buffer solutions). The mixture was then incubated at 37 °C, samples were collected at predetermined time points (0, 1, 2, 3, 4, 5, 24 and 48 h), and analyzed by LC-MS.
Results are presented as the mean ± of SD after repeating the experiment three times.
Figure S9: ESI-LCMS charts detected at 254 nm of conjugate 20 at pΗ5.2 and selected time intervals

In another data set the target is T1, TTK (Homo sapiens, UniProt P33981).
T1 sequence (P33981 1-857): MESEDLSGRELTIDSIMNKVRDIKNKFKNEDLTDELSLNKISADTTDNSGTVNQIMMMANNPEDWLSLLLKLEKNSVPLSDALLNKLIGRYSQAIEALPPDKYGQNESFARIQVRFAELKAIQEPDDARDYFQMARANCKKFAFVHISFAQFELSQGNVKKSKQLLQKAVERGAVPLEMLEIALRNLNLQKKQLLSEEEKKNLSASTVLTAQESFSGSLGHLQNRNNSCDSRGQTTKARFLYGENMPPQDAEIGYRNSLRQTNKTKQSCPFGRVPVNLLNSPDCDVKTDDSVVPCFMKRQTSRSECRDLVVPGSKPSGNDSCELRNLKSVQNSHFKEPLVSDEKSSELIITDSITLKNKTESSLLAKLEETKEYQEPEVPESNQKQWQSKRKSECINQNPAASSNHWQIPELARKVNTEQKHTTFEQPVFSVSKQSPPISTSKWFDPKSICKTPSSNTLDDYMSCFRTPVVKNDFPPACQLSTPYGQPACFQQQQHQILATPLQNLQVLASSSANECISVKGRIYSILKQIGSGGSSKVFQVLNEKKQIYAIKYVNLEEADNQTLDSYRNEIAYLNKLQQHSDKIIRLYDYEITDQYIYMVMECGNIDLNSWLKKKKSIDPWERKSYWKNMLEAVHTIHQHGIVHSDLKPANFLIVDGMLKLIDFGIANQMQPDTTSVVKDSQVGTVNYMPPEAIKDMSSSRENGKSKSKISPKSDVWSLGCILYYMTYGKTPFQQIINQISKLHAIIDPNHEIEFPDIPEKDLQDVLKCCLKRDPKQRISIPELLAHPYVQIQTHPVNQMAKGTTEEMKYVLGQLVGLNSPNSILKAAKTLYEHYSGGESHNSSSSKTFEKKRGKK
Briefly: Immunoblot of TTK in HiBiT-TTK cells. It counts as cell-based. Further details: endogenous in cells; host or cells: naive MV4-11. The following applies: 6 h, 10 µM. As for the experimental part:
The cells were treated with compounds or vehicle for indicated time points and lysed in RIPA lysis buffer (50 mM HEPES pH 7.9, 140 mM NaCl, 1 mM EDTA, 1% Triton X-100, 0.1% SDS, 0.1% sodium deoxycholate) containing protease and phosphatase inhibitors (Sigma) for 20 min at 4 °C. Cell lysates were cleared by centrifugation, and protein concentration was determined with bicinchoninic acid assay. Equal amounts of protein per sample were separated by Bis-Tris-PAGE and transferred to PVDF membranes (Millipore). The membranes were blocked with 5% (w/v) nonfat dry milk in TBS-T [20 mM Tris–HCl, pH 7.5, 150 mM NaCl, 0.1% (v/v) Tween-20] for 1 h at room temperature and incubated with primary antibody at 4 °C overnight. Visualization was carried out using horseradish peroxidase (HRP)-labeled secondary antibodies and detected using a chemiluminescent HRP substrate (Millipore) in LAS3000 or LAS4000 mini (Fujifilm). Vinculin, GAPDH, or B-actin were used as a loading control. The loading control was probed along with the target antibody by cutting the membrane. For targets with similar molecular weights, the samples were run in duplicate and probed with their respective loading controls, although only one control was shown in the figure for all targets. The signal was quantified using ImageJ or Image Studio Lite against the corresponding loading controls. […]
In general terms: In western blotting, separated proteins are transferred to a membrane and probed.

Consider `CC(C)S(=O)(=O)c1ccccc1Nc1nc(Nc2ccc(N3CCN(C(=O)CNC(=O)CCCC(=O)Nc4cccc5c4C(=O)N(C4CCC(=O)NC4=O)C5=O)CC3)cc2)nc2[nH]cnc12` (stereo not shown) [Compound 20], for which the “residual concentration (% of initial concentration)” value in data set [1] (pH 5.2, 37 °C) is recorded as 56%; in data set [1] (pH 7.4, 37 °C) it was 11.2%. Further, the “stability at both pH values” in data set [1] (pH 5.2 and 7.4, 37 °C, for 8 h) is reported as “stable”.
As to `Cc1ncsc1-c1ccc(CNC(=O)[C@@H]2C[C@@H](O)CN2C(=O)[C@@H](NC(=O)COCCOCC(=O)N2CCN(c3ccc(Nc4nc(Nc5ccccc5S(=O)(=O)C(C)C)c5nc[nH]c5n4)cc3)CC2)C(C)(C)C)cc1` [Compound 49], the “relative TTK level (immunoblot quantification, vehicle = 1.00)” value at TTK is 0.48.
